Source: US20240043467A1, “5'-SUBSTITUTED NUCLEOSIDE MONOPHOSPHATES, PRODRUGS THEREOF, AND USES RELATED THERETO” (EMORY UNIVERSITY, priority 2020, published 2024)

Molecular target: T1, Recombinant human thymidylate synthase (hTS) (Homo sapiens, UniProt P04818)
T1 construct: purchased Abcam
Experiment: Human thymidylate synthase inhibition assay
Assay type: biochemical
Conditions: for hTS inhibition: highest concentration tested 20 μM
Description: Recombinant human thymidylate synthase (hTS) was purchased from Abcam. […] 5,10-Methylenetetrahydrofolate (calcium salt) was purchased from Boc Sciences and used without further purification.
The hTS inhibition assays were performed on a BioTek Synergy Neo2 plate reader equipped with a Xenon flash lamp and a photodiode array detector. The hTS reaction was conducted at room temperature in a buffer solution (pH 7.5) containing 50 mM Tris-HCl, 1 mM EDTA, 25 mM MgCl2, and 5 mM HCHO. […] 5,10-Methylenetetrahydrofolate was added last to initiate the reaction. Formation of the co-product, dihydrofolate, was monitored at 340 nm. The absorbance at 340 nm was plotted against the reaction time to calculate the reaction rate (i.e., the slope of the linear fitting). The reaction rates at different inhibitor concentrations were normalized to the reaction rate determined in the absence of inhibitor (100% enzymatic activity). The resulting % enzymatic activity values were plotted against the corresponding log value of the inhibitor concentration to construct concentration-response curves. IC50 values were then calculated using non-linear regression (four-parameter logistic equation, see Equation 1 below) in the GraphPad Prism v.9 software.
Y=Ymin+(Ymax−Ymin)/[1+10^((logIC50−X)×Hill Slope)] Equation 1

T1 sequence (P04818 whole entry): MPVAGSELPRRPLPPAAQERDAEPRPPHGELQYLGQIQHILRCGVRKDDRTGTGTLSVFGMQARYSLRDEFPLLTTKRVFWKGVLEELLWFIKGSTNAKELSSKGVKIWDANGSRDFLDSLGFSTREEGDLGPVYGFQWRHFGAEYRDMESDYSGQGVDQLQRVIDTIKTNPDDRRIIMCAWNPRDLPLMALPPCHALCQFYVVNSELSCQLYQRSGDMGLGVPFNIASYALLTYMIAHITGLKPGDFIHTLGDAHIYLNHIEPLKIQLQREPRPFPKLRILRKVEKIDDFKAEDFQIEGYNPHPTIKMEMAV

Compound	IC50 (50 μM dUMP, 0.84 μM hTS, five repeats, pH 7.5, room temperature, read-out: IC50 against hTS)	hTS inhibition
C[C@@H](OP(=O)(O)O)[C@H]1O[C@@H](n2cc(F)c(=O)[nH]c2=O)C[C@@H]1O [MD-7-105, lithium (R)-1-((2S,3S,5R)-5-(5-fluoro-2,4-dioxo-3,4-dihydropyrimidin-1(2H)-yl)-3-hydroxytetrahydrofuran-2-yl)ethyl phosphate]	1210 nM	–
C[C@H](OP(=O)(O)O)[C@H]1O[C@@H](n2cc(F)c(=O)[nH]c2=O)C[C@@H]1O [MD-7-112, lithium (S)-1-((2S,3S,5R)-5-(5-fluoro-2,4-dioxo-3,4-dihydropyrimidin-1(2H)-yl)-3-hydroxytetrahydrofuran-2-yl)ethyl phosphate]	–	inactive
CC(C)(OP(=O)([O-])[O-])[C@H]1O[C@@H](n2cc(F)c(=O)[nH]c2=O)C[C@@H]1O.[Li+].[Li+] [MD-7-115, lithium 2-((2S,3S,5R)-5-(5-fluoro-2,4-dioxo-3,4-dihydropyrimidin-1(2H)-yl)-3-hydroxytetrahydrofuran-2-yl)propan-2-yl phosphate]	–	inactive
